We go through 22 compounds from patent EP4567035A1, “NOVEL COMPOUND AS HYPOXIA-INDUCIBLE FACTOR 1(HIF-1) INHIBITOR OR VASCULAR ENDOTHELIAL GROWTH FACTOR (VEGF) INHIBITOR, AND PHARMACEUTICAL COMPOSITION COMPRISING SAME” (Nextgen Bioscience Co., Ltd., priority 2022, dated 2024).

One test concerns the target T1, HIF-1α (Homo sapiens, UniProt Q16665).
T1 construct: endogenous in cells; host or cells: ARPE-19 (ATCC CRL-2302)
The test is described as follows: Analysis of HIF-1α protein expression (Western blot) in ARPE-19 cells under mixed hypoxic condition. The note with it: concentration range at which HIF-1α expression is reduced by 50% vs untreated control. The test is classed as cell-based. In short, it runs like this:
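ARPE-19 cells were pretreated 16 h or 2 h with compound (0.1 nM–10 µM, serum-free DMEM/F12), then held 1 h or 24 h in mixed hypoxia (1% O2 plus CoCl2). HIF-1α was quantified by Western blot against β-actin; the concentration range giving ≥50% reduction vs untreated control was reported.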

For a further test, the system named is VEGF. In words: Evaluation of VEGF protein secretion level (Human VEGF ELISA) in ARPE-19 cell medium under hypoxic conditions. It is filed as cell-based. The protocol:
ARPE-19 cells (Human retinal pigment epithelial cells, ATCC CRL-2302) were cultured in DMEM/F12 (LM002-08, Welgene) medium containing 10% fetal bovine serum (FBS, 16000-044, Gibco) in an incubator at 37°C with 5% carbon dioxide. When the cells grew sufficiently, they were cultured in experimental culture dishes for protein isolation and medium supernatant acquisition.
Cells were detached from the culture dish using TrypLE™ Express (Gibco). After centrifugation at 1000 rpm for 3 minutes, the supernatant was removed. The cells were counted and seeded into new culture dishes. Normoxic conditions were maintained by culturing the cells in a 37°C incubator with 5% carbon dioxide, and hypoxic conditions were maintained by culturing the cells in a hypoxic incubator with 1% oxygen, 5% carbon dioxide, and 94% nitrogen gas.
The expression of the downstream gene, angiogenesis inducer VEGF, is regulated by HIF-1α, a major transcription factor under hypoxic conditions, and the level of secreted VEGF protein can be quantitatively confirmed through ELISA (Enzyme Linked Immunosorbent Assay, Human VEGF Quantikine ELISA Kit, R&D systems). For this purpose, the following experiment was conducted.
The compounds of each Example were diluted to 0.1 nM, 1 nM, 3 nM, 10 nM, 30 nM, 100 nM, 300 nM, 1 µM and 10 µM in DMEM/F12 medium containing 1% fetal bovine serum, pretreated for 2 hours, and cultured for 24 hours under hypoxic conditions to obtain the cell medium supernatant. The supernatant was centrifuged at 1000 rpm for 3 minutes, and a specific amount was treated with a VEGF ELISA assay kit and the absorbance value was measured at 450 nm to quantitatively confirm the level of VEGF protein (see Table 1 below).
Based on the results of secreted VEGF protein expression levels in cell media treated with compounds diluted at concentrations ranging from 10 µM to 0.1 nM, the concentration range of the compound at which the secreted VEGF protein level was reduced by 50% or less compared to the untreated control group was derived.
(ELISA stands for enzyme-linked immunosorbent assay.)

Where [1] appears, read: mixed hypoxic condition (1% oxygen + CoCl2) for 1 hour, read-out: IC50 HIF-1α Hypoxia (1 hour).
Setting [2] is: ARPE-19 cells, pretreated 2 hours, 24 hours hypoxic conditions, secreted VEGF in medium supernatant by ELISA, concentration range reducing VEGF by 50% vs untreated control, read-out: IC50 VEGF.
Setting [3] is: values marked * in the table, mixed hypoxic condition (1% oxygen + CoCl2) for 24 hours, read-out: IC50 HIF-1α, Hypoxia(24h).
Setting [4] is: ARPE-19 cells, pretreated 2 hours, 24 hours hypoxic conditions, ELISA, read-out: concentration at which the secreted VEGF protein level was suppressed to less than 50%.
Where [5] appears, read: Experimental Example 2 (HIF-1α Western blot), read-out: concentration at which the expression level of VEGF was suppressed to less than 50%.

Like-named read-outs stand apart in the source and are kept apart here. Some results are limits rather than exact numbers.

T1 sequence (Q16665 whole entry): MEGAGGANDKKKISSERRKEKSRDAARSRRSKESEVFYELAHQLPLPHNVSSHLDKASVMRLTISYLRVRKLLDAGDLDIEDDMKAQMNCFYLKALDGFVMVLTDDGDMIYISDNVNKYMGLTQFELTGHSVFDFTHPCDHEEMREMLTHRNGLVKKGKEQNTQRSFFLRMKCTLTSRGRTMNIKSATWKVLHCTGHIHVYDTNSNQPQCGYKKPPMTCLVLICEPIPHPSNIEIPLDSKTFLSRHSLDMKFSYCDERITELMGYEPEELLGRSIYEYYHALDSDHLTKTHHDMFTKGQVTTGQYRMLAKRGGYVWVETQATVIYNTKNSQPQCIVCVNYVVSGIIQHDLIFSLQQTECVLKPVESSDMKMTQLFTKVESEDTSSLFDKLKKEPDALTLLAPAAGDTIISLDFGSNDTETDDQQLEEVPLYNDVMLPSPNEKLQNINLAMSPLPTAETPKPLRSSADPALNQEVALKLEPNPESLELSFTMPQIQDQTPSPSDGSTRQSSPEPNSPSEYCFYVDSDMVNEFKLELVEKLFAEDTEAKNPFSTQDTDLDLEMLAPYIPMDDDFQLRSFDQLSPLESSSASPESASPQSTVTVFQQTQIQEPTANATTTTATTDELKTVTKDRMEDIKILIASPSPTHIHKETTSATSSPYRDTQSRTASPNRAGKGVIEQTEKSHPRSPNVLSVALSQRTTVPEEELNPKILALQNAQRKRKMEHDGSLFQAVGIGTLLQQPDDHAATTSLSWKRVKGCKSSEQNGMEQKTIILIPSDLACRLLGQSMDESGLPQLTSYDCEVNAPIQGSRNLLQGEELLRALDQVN

For `COc1ccc(Nc2cc(F)cc(CNC(=O)c3ncnc4nc(C5CCCC5)n(C)c34)c2)cc1` [Example 36, 8-Cyclopentyl-N-(3-fluoro-5-((4-methoxyphenyl)amino)benzyl)-7-methyl-7H-purine-6-carboxamide], the DC50 on HIF-1α (setting [1]) was less than 100 nM. In addition, in the test with VEGF (setting [2]), the IC50 lay within 100 to 1000 nM.

Consider `NC(=O)c1cccc(-n2cc(-c3cc(F)cc(CNC(=O)c4ncnc5nc(C6CCCC6)[nH]c45)c3)cn2)c1` [Example 37, N-(3-(1-(3-carbamoylphenyl)-1H-pyrazol-4-yl)-5-fluorobenzyl)-8-cyclopentyl-7H-purine-6-carboxamide], for which the DC50 on HIF-1α (setting [3]) is less than 100 nM. The IC50 with VEGF (setting [4]), in the test with VEGF (setting [2]) and in the test on VEGF (setting [5]) was less than 100 nM in each case.

`O=C(NCc1cc(F)cc(-c2cnsc2)c1)c1ncnc2nc(C3CCCC3)[nH]c12` [Example 38, 8-Cyclopentyl-N-(3-fluoro-5-(isothiazol-4-yl)benzyl)-7H-purine-6-carboxamide]: the DC50 at HIF-1α (setting [1]) was less than 100 nM. The IC50 in the test with VEGF (setting [2]) fell in the range of 100 to 1000 nM.

Regarding `O=C(NCc1cc(F)cc(-c2ccco2)c1)c1ncnc2nc(C3CCCC3)[nH]c12` [Example 39, 8-Cyclopentyl-N-(3-fluoro-5-(furan-2-yl)benzyl)-7H-purine-6-carboxamide], the DC50 on HIF-1α (setting [1]) is 100 to 1000 nM. The IC50 in the test with VEGF (setting [2]) was in the range of 100 to 1000 nM.

With `O=C(NCc1cc(F)cc(-c2ccsc2)c1)c1ncnc2nc(C3CCCC3)[nH]c12` [Example 40, 8-Cyclopentyl-N-(3-fluoro-5-(thiophen-3-yl)benzyl)-7H-purine-6-carboxamide], the DC50 on HIF-1α (setting [3]) was less than 100 nM. Further, the IC50 with VEGF (setting [2]) lay within 100 to 1000 nM.

Regarding `O=C(NCc1cc(F)cc(Nc2ccc(C(F)(F)F)cc2)c1)c1ncnc2nc(C3CCCC3)[nH]c12` [Example 41, 8-Cyclopentyl-N-(3-fluoro-5-((4-(trifluoromethyl)phenyl)amino)benzyl)-7H-purine-6-carboxamide], the DC50 at HIF-1α (setting [1]) was less than 100 nM. The IC50 in the test on VEGF (setting [2]) is 100 to 1000 nM.

As for `Cc1cc(-n2cc(-c3cc(F)cc(CNC(=O)c4ncnc5nc(C6CCCC6)[nH]c45)c3)cn2)ccn1` [Example 42, 8-Cyclopentyl-N-(3-fluoro-5-(1-(2-methylpyridin-4-yl)-1H-pyrazol-4-yl)benzyl)-7H-purine-6-carboxamide], the DC50 on HIF-1α (setting [3]) is less than 100 nM. The IC50 in the test with VEGF (setting [4]), with VEGF (setting [2]) and in the test with VEGF (setting [5]) was less than 100 nM each time.

As for `COc1ccc(-n2cc(-c3cc(F)cc(CNC(=O)c4ncnc5nc(C6CCCC6)[nH]c45)c3)cn2)cn1` [Example 43, 8-Cyclopentyl-N-(3-fluoro-5-(1-(6-methoxypyridin-3-yl)-1H-pyrazol-4-yl)benzyl)-7H-purine-6-carboxamide], on HIF-1α (setting [1]), the DC50 was less than 100 nM. For the same compound, the IC50 in the test with VEGF (setting [2]) fell in the range of 100 to 1000 nM.

With `O=C(NCc1cc(F)cc(-c2cnn(-c3ccc(C(F)(F)F)nc3)c2)c1)c1ncnc2nc(C3CCCC3)[nH]c12` [Example 44, 8-Cyclopentyl-N-(3-fluoro-5-(1-(6-(trifluoromethyl)pyridin-3-yl)-1H-pyrazol-4-yl)benzyl)-7H-purine-6-carboxamide], the DC50 on HIF-1α (setting [1]) was less than 100 nM. The IC50 in the test with VEGF (setting [2]) lay within 100 to 1000 nM.

As to `CS(=O)(=O)c1cccc(-n2cc(-c3cc(F)cc(CNC(=O)c4ncnc5nc(C6CCCC6)[nH]c45)c3)cn2)c1` [Example 45, 8-Cyclopentyl-N-(3-fluoro-5-(1-(3-(methylsulfonyl)phenyl)-1H-pyrazol-4-yl)benzyl)-7H-purine-6-carboxamide], the DC50 on HIF-1α (setting [3]) was less than 100 nM. Also, the IC50 in the test on VEGF (setting [4]), in the test with VEGF (setting [2]) and in the test on VEGF (setting [5]) was less than 100 nM throughout.

Take `O=C(NCc1cc(F)cc(-c2cnn(-c3cccc(F)c3)c2)c1)c1ncnc2nc(C3CCCC3)[nH]c12` [Example 46, 8-Cyclopentyl-N-(3-fluoro-5-(1-(3-fluorophenyl)-1H-pyrazol-4-yl)benzyl)-7H-purine-6-carboxamide]: the DC50 at HIF-1α (setting [3]) is less than 100 nM. In addition, the IC50 with VEGF (setting [2]) lay in the range of 100 to 1000 nM.

On to `O=C(NCc1cc(F)cc(-c2cnn(-c3ccc(F)nc3)c2)c1)c1ncnc2nc(C3CCCC3)[nH]c12` [Example 47, 8-Cyclopentyl-N-(3-fluoro-5-(1-(6-fluoropyridin-3-yl)-1H-pyrazol-4-yl)benzyl)-7H-purine-6-carboxamide], for which the DC50 on HIF-1α (setting [3]) is less than 100 nM. Also, the IC50 with VEGF (setting [4]), in the test on VEGF (setting [2]) and in the test on VEGF (setting [5]) was less than 100 nM each time.

As to `O=C(NCc1cc(F)cc(-c2cnn(-c3ccc(I)cn3)c2)c1)c1ncnc2nc(C3CCCC3)[nH]c12` [Example 48, 8-Cyclopentyl-N-(3-fluoro-5-(1-(5-iodopyridin-2-yl)-1H-pyrazol-4-yl)benzyl)-7H-purine-6-carboxamide], the DC50 at HIF-1α (setting [1]) was less than 100 nM. Besides, the IC50 in the test on VEGF (setting [2]) lay in the range of 1000 to 10000 nM.

Regarding `O=C(O)c1cccc(-n2cc(-c3cc(F)cc(CNC(=O)c4ncnc5nc(C6CCCC6)[nH]c45)c3)cn2)c1` [Example 49, 3-(4-(3-((8-Cyclopentyl-7H-purine-6-carboxamido)methyl)-5-fluorophenyl)-1H-pyrazol-1-yl)benzoic acid], the DC50 at HIF-1α (setting [1]) was less than 100 nM. Also, in the test on VEGF (setting [2]), the IC50 lay in the range of 1000 to 10000 nM.

In the case of `N#Cc1ccc(-n2cc(-c3cc(F)cc(CNC(=O)c4ncnc5nc(C6CCCC6)[nH]c45)c3)cn2)cc1` [Example 50, N-(3-(1-(4-cyanophenyl)-1H-pyrazol-4-yl)-5-fluorobenzyl)-8-cyclopentyl-7H-purine-6-carboxamide], the DC50 on HIF-1α (setting [3]) is less than 100 nM. Besides, the IC50 with VEGF (setting [4]), in the test on VEGF (setting [2]) and in the test with VEGF (setting [5]) was less than 100 nM throughout.

In the case of `O=C(NCc1cc(F)cc(-c2ccn(-c3ccc(F)cc3)n2)c1)c1ncnc2nc(C3CCCC3)[nH]c12` [Example 51, 8-Cyclopentyl-N-(3-fluoro-5-(1-(4-fluorophenyl)-1H-pyrazol-3-yl)benzyl)-7H-purine-6-carboxamide], on HIF-1α (setting [1]), the DC50 was less than 100 nM. Moreover, the IC50 with VEGF (setting [2]) lay within 100 to 1000 nM.

On to `O=C(NCc1cc(F)cc(-c2ccn(-c3ccc(F)cc3)c2)c1)c1ncnc2nc(C3CCCC3)[nH]c12` [Example 52, 8-Cyclopentyl-N-(3-fluoro-5-(1-(4-fluorophenyl)-1H-pyrrol-3-yl)benzyl)-7H-purine-6-carboxamide], for which the DC50 on HIF-1α (setting [1]) is less than 100 nM. Further, the IC50 in the test on VEGF (setting [2]) lay within 100 to 1000 nM.

As to `NC(=O)c1ccc(-n2cc(-c3cc(F)cc(CNC(=O)c4ncnc5nc(C6CCCC6)[nH]c45)c3)cn2)cc1` [Example 53, N-(3-(1-(4-carbamoylphenyl)-1H-pyrazol-4-yl)-5-fluorobenzyl)-8-cyclopentyl-7H-purine-6-carboxamide], the DC50 at HIF-1α (setting [3]) is less than 100 nM. Further, in the test with VEGF (setting [2]), the IC50 lay in the range of 100 to 1000 nM.

As for `O=C(O)c1ccc(-n2cc(-c3cc(F)cc(CNC(=O)c4ncnc5nc(C6CCCC6)[nH]c45)c3)cn2)cc1` [Example 54, 4-(4-(3-((8-Cyclopentyl-7H-purine-6-carboxamido)methyl)-5-fluorophenyl)-1H-pyrazol-1-yl)benzoic acid], the DC50 at HIF-1α (setting [1]) is less than 100 nM. The IC50 in the test on VEGF (setting [2]) fell in the range of 100 to 1000 nM.

`O=C(NCc1cc(-c2cnn(-c3ccc(F)cc3)c2)ccc1F)c1ncnc2nc(C3CCCC3)[nH]c12` [Example 56, 8-Cyclopentyl-N-(2-fluoro-5-(1-(4-fluorophenyl)-1H-pyrazol-4-yl)benzyl)-7H-purine-6-carboxamide]: the DC50 on HIF-1α (setting [3]) is less than 100 nM. The IC50 in the test with VEGF (setting [2]) lay within 100 to 1000 nM.

Take `O=C(NCc1cccc(-c2cnn(-c3ccc(F)cc3)c2)c1)c1ncnc2nc(C3CCCC3)[nH]c12` [Example 57, 8-Cyclopentyl-N-(3-(1-(4-fluorophenyl)-1H-pyrazol-4-yl)benzyl)-7H-purine-6-carboxamide]: the DC50 on HIF-1α (setting [3]) was less than 100 nM. For the same compound, the IC50 in the test on VEGF (setting [2]) was in the range of 100 to 1000 nM.

Turning to `O=C(NCc1cc(F)cc(-c2cnn(-c3ccc(Cl)cc3)c2)c1)c1ncnc2nc(C3CCCC3)[nH]c12` [Example 58, N-(3-(1-(4-chlorophenyl)-1H-pyrazol-4-yl)-5-fluorobenzyl)-8-cyclopentyl-7H-purine-6-carboxamide], the DC50 on HIF-1α (setting [3]) was less than 100 nM. In addition, the IC50 with VEGF (setting [2]) fell in the range of 100 to 1000 nM.
